Measurements from patent publication US11787825B2 (priority 2021, dated 2023).
In brackets after ≈: the same amount, converted by molar mass. Like-named read-outs stand apart in the source and are kept apart here.

Assays:
physchem = details: 25 °C, thermodynamic from solid
[1] = 0.1N HCL, 1.0% DMSO, 24-hour incubation at ambient temperature, maximum theoretical compound concentration 100 μM
[2] = 1×PBS buffer (pH 7.4), 1.0% DMSO, 24-hour incubation at ambient temperature, maximum theoretical compound concentration 100 μM
[3] = fed state simulated intestinal fluid (FeSSIF), fessif

Row | SMILES | pH 2 solubility [1] | pH 7 solubility [2] | solubility (physchem; [3]) | pH 2 solubility (pH 2) | pH 7 solubility (pH 7.4) | solubility (physchem; fassif) | solubility (physchem; fasted state simulated intestinal fluid (FaSSIF), fassif)
1 | CN(C)CC(=O)N(c1nn(CC(F)(F)F)c2c(-c3ccc(C#CC(C)(C)S(C)(=O)=O)nc3[C@H](Cc3cc(F)cc(F)c3)NC(=O)Cn3nc(C(F)(F)F)c4c3C(F)(F)[C@@H]3C[C@H]43)ccc(Cl)c12)S(C)(=O)=O [Compound 4, N-(4-chloro-7-(2-((S)-1-(2-((3bS,4aR)-5,5-difluoro-3-(trifluoromethyl)-3b,4,4a,5-tetrahydro-1H-cyclopropa[3,4]cyclopenta[1,2-c]pyrazol-1-yl)acetamido)-2-(3,5-difluorophenyl)ethyl)-6-(3-methyl-3-(methylsulfonyl)but-1-yn-1-yl)pyridin-3-yl)-1-(2,2,2-trifluoroethyl)-1H-indazol-3-yl)-2-(dimethylamino)-N-(methylsulfonyl)acetamide] | 42 μM | 1 μM | 6 µg/mL (≈ 5.7 µM) | – | – | – | –
2 | Cc1cc(C(=O)NCP(=O)(O)O)cc(OP(=O)(O)O)c1C(C)(C)CC(=O)N(c1nn(CC(F)(F)F)c2c(-c3ccc(C#CC(C)(C)S(C)(=O)=O)nc3[C@H](Cc3cc(F)cc(F)c3)NC(=O)Cn3nc(C(F)(F)F)c4c3C(F)(F)[C@@H]3C[C@H]43)ccc(Cl)c12)S(C)(=O)=O [Compound 60, ((4-(4-(N-(4-chloro-7-(2-((S)-1-(2-((3bS,4aR)-5,5-difluoro-3-(trifluoromethyl)-3b,4,4a,5-tetrahydro-1H-cyclopropa[3,4]cyclopenta[1,2-c]pyrazol-1-yl)acetamido)-2-(3,5-difluorophenyl)ethyl)-6-(3-methyl-3-(methylsulfonyl)but-1-yn-1-yl)pyridin-3-yl)-1-(2,2,2-trifluoroethyl)-1H-indazol-3-yl)methylsulfonamido)-2-methyl-4-oxobutan-2-yl)-3-methyl-5-(phosphonooxy)benzamido)methyl)phosphonic acid] | – | – | – | 1/64 μM | 1/64 μM | > 10000 µg/mL | –
3 | CN(CC(=O)N(c1nn(CC(F)(F)F)c2c(-c3ccc(C#CC(C)(C)S(C)(=O)=O)nc3[C@H](Cc3cc(F)cc(F)c3)NC(=O)Cn3nc(C(F)(F)F)c4c3C(F)(F)[C@@H]3C[C@H]43)ccc(Cl)c12)S(C)(=O)=O)C(=O)OCOP(=O)(O)O [Compound 37, (phosphonooxy)methyl (2-(N-(4-chloro-7-(2-((S)-1-(2-((3bS,4aR)-5,5-difluoro-3-(trifluoromethyl)-3b,4,4a,5-tetrahydro-111-cyclopropa[3,4]cyclopenta[1,2-c]pyrazol-1-yl)acetamido)-2-(3,5-difluorophenyl)ethyl)-6-(3-methyl-3-(methylsulfonyl)but-1-yn-1-yl)pyridin-3-yl)-1-(2,2,2-trifluoroethyl)-1H-indazol-3-yl)methylsulfonamido)-2-oxoethyl)(methyl)carbamate] | 1 μM | 79 μM | – | – | – | 674 µg/mL (≈ 565 µM) | –
4 | CC(C)(C#Cc1ccc(-c2ccc(Cl)c3c(N(C(=O)CCCC(=O)OCOP(=O)(O)O)S(C)(=O)=O)nn(CC(F)(F)F)c23)c([C@H](Cc2cc(F)cc(F)c2)NC(=O)Cn2nc(C(F)(F)F)c3c2C(F)(F)[C@@H]2C[C@H]32)n1)S(C)(=O)=O [Compound 29, (phosphonooxy)methyl 5-(N-(4-chloro-7-(2-((S)-1-(2-((3bS,4aR)-5,5-difluoro-3-(trifluoromethyl)-3b,4,4a,5-tetrahydro-1H-cyclopropa[3,4]cyclopenta[1,2-c]pyrazol-1-yl)acetamido)-2-(3,5-difluorophenyl)ethyl)-6-(3-methyl-3-(methylsulfonyl)but-1-yn-1-yl)pyridin-3-yl)-1-(2,2,2-trifluoroethyl)-1H-indazol-3-yl)methylsulfonamido)-5-oxopentanoate] | 2 μM | 92 μM | 130 µg/mL (≈ 109 µM) | – | – | – | 268 µg/mL (≈ 225 µM)
